Here are results for two compounds from patent publication US11065336B2, “Conjugates for targeting and clearing aggregates” (MedImmune Limited, priority 2018, dated 2021).

The subject of data set [1] is amyloid proteins (hen lysozyme (hLys), human full-length alpha synuclein, human tau P301S). Kind of data set: fluorometric assay of binding to amyloid proteins. As to conditions: 30 μM reporter solution in PBS; excitation 450 nm, emission 460-680 nm; compared to amyloid-free control. Here is the method: The binding of BDB to various amyloid proteins was evaluated in vitro using a fluorometric assay.
The amyloid proteins (hen lysozyme (hLys), human full-length alpha synuclein, and human tau P301S) were individually prepared for use in the fluorometric assay. hLys (Sigma) was dissolved in 136.8 mM NaCl, 2.68 mM KCl, 0.01% w/v NaN3, pH 2 at a concentration of 1.45 mg/ml and incubated at 55° C. for 24 h in an orbital shaker at 150 rpm. Human full length alpha synuclein (Alexotech) was dissolved in 150 mM NaCl, 1% v/v triton-x100 in PBS at a concentration of 2.2 mg/ml and incubated at 37° C. for 72 h in an orbital shaker at 250 rpm. Human tau P301S was incubated at 8 mg/ml with 4 mg/ml heparin (Sigma) in PBS, 30 mM 3-(N-morpholino) propanesulfonic acid (MOPS) (pH 7.2) at 37° C. for 72 h. […]
The binding of the BDB to amyloid was detected using a fluorometric assay. The amyloid binding was detected with the use of one of three fluorescent reporters solutions (30 μM BDB, cp33 peptide (Bonetto S et al. FASEB J. 2009; 23(2):575-85) or Thioflavin T (ThT) (Sigma) solution, in PBS). […] An Envision plate reader was set to excite at 450 nm and measure emission within the range 460-680 nm. The corresponding fluorescence signals of the reporter solutions were subtracted from the experimental data.

The subject of data set [2] is Fc receptor on IFNγ-activated U937 cells. Kind of data set: competition of BDB and cp33 peptide binding with unlabelled human IgG1 (FACS). It counts as cell-based. As to conditions: 1 μM BDB or cp33; human IgG1 above approximately 10 nM.
Data set [3] concerns IFNγ-activated U937 cells. Nature of the data set: titrating BDB and IgG1 binding to IFNg stimulated U937 cells (FACS). It counts as cell-based, human. To be noted: flow cytometry. Here is the method:
(§1) Specifically, U937 cells were cultured in RPMI 1640+2 mM Glutamine+10% v/v foetal bovine serum (FCS) for 48 h in the absence or presence of […] human IFNγ (Thermo Fisher Scientific). Murine primary macrophages were cultured for 48 h in the absence or presence of 100 μg/ml LPS (Sigma). Aliquots of 5×10^5 cells were centrifuged 3 min at 300 g and resuspended either in 50 μl of 10 μM BDB, 1 μM biotinylated human IgG1 or PBS. Samples were incubated at 4° C. for 1 h and then centrifuged for 3 min at 100 g. Cells were resuspended in 50 μl of either AF488-streptavidin conjugate (Thermo Fisher Scientific, 1:500 in PBS) with APC-Cy7 dead/live stain (Thermo Fisher Scientific, 1:2000 in PBS) or dead/live stain only. Samples were incubated at 4° C. for 30 min and then centrifuged for 3 min at 100 g. Samples were washed with 200 μl cold PBS and resuspended in 250 μl PBS for analysis using a FACS Canto II, with 10^4 events recorded per condition. Using FlowJo software, cells were visualised using forward and side scatter plots (FSC vs. SSC) and live cells were gated according to their live/dead staining. The percentage of live cells positive for AF488 signal was identified for each condition and plotted. The experiment was repeated three times and results present as the mean (+/−SD). […]
The binding of BDB and IgG1 to IFNγ stimulated U937 cells was determined using the following methods. […]
On the technique in general: In flow cytometry, cells or beads pass a laser one at a time.

For data set [4], the system named is U937 cells treated with IFNγ. Kind of data set: FACS binding to activated and non-activated U937 cells. To be noted: 10 μM BDB or 1 μM biotinylated human IgG1; 4° C., 1 h. It counts as cell-based. Here is the method: (§2) In order to determine the binding affinity of BDB to activated phagocytic cells, activated and non-activated U937 cells or murine primary macrophages were resuspended in the presence of BDB, biotinylated human IgG1, or PBS. The cells were then stained using either AF488-streptavidin conjugate, APC-Cy7 dead/live stain, or dead/live stain only and measured using fluorescence activated cell sorting (FACS).
as §1, with “condition.” for “condition. Using FlowJo software, cells were visualised using forward and side scatter plots (FSC vs. SSC) and live cells were gated according to their live/dead staining. The percentage of live cells positive for AF488 signal was identified for each condition and plotted. The experiment was repeated three times and results present as the mean (+/−SD).”

Data set [5] relates to IFNγ-activated U937 cells. Kind of data set: colocalization of BDB and AF647-labelled hLys amyloid to the surface of U937 cells (FACS). The format is cell-based, human. As to conditions: 1 μM BDB or cp33. Here is the method: IFNγ-activated U937 cells, a human macrophage cell line, were incubated with either BDB, cp33 peptide, or vehicle in the presence or absence of Alexa Fluor™ 647-labelled hLys amyloid in order to determine if the IFNγ-activated U937 cells have increased binding of amyloid in the presence of BDB or cp33 peptide as compared to vehicle.
Specifically, hLys were labelled with the fluorescent dye alexa 647, using the Alexa Fluor™ 647 Microscale Protein Labelling Kit (Thermo Fisher Scientific) according to the manufacturer's instructions with the following modifications: after protein labelling, the solution was made up to 500 μl with PBS and the sample centrifuged at 20800 for 40 min. The supernatant was discarded and the pellet washed with PBS, resuspended in 500 μl PBS and the centrifugation repeated. The final pellet was resuspended in 100 μl of PBS.
U937 cells were cultured in RPMI 1640+2 mM Glutamine+10% v/v FCS for 48 h in the presence of […] human IFNγ. Aliquots of 5×10^5 cells were centrifuged 3 min at 300 g and resuspended in 50 μl of either 1 μM BDB or cp33 and then incubated with either 1 or 0.1 μM AF647-hLyz. The staining and FACS analysis were performed as before, this time reporting the percentage of live cells positive for both AF488-streptavidin and AF647 h-Lyz.

In data set [6] the test system is murine primary macrophages treated with LPS. Nature of the data set: FACS binding to activated and non-activated murine primary macrophages. As to conditions: 10 μM BDB or 1 μM biotinylated human IgG1; 4° C., 1 h. The format is cell-based. Here is the method:
as §2
as §1, with “condition.” for “condition. Using FlowJo software, cells were visualised using forward and side scatter plots (FSC vs. SSC) and live cells were gated according to their live/dead staining. The percentage of live cells positive for AF488 signal was identified for each condition and plotted. The experiment was repeated three times and results present as the mean (+/−SD).”

Data set [7] relates to macrophage-differentiated U937 cells. Nature of the data set: phagocytosis of pHrodo-red labelled hLys amyloid (IncuCyte). The format is cell-based, human. Here is the method: Macrophage-differentiated U937 cells were co-incubated with pHrodo-red labelled amyloid, BDB, cp33 peptide, or control in order to determine the amount of amyloid phagocytosed under various conditions. hLys amyloid fibrils were generated as described above and were labelled with the pHrodo Red Microscale Labeling Kit (ThermoFisher) according to the manufacturers instruction except that unincorporated label was removed from the labelled amyloid by three rounds of centrifuging at 20,000×g in a microfuge, discarding the supernatant and resuspending the amyloid pellet in PBS. U937 cells were differentiated into macrophages in the presence of […] M-CSF (Peprotech), 1 μg/ml PMA (Sigma) and […] IFNγ (Thermo Fisher Scientific) for 4 days. 8×10^5 cells/condition were centrifuged for 3 min at 300 g and resuspended in 50 μl of 1 μM BDB, 1 μM cp33, 1 μM BDB with 0.1 μM labelled amyloid, 1 μM cp33 with 0.1 μM labelled amyloid, 0.1 μM labelled amyloid or a 1:100 PBS dilution of a pHrodo Red-labelled E. coli suspension (Thermo Fisher Scientific). […]
The plates were placed in an IncuCyte instrument and settings programmed to scan both in phase contrast and the red fluorescence channel hourly for 48 h. […] A metric of Total Red Object Area (μm^2/well) was used to quantify the appearance of pHrodo red fluorescence within cells. […]

Ends that are not written are not given here.

For the compound `Cc1ccc2c(c1)sc(-c1ccc(N(C)C)cc1)[n+]2C.[Cl-]` [Tht, Thioflavin T, reference compound], in data set [1], the “fluorescence in the presence of amyloid proteins” value was “increased fluorescence”.

Turning to “BDB: conjugate of Compound 1 (carboxylic acid derivative of thioflavin T) added as terminal residue to biotinylated cyclic cp33 peptide derivative (SEQ ID NO:3) (AQVNSCLLLPNLLGCGDDK; not fully specified (bridges); cysteine pairing not given here; also: biotinylated, thioflavin T derivative (Compound 1) added as terminal residue, end not given here)”, in data set [1], the “fluorescence in the presence of amyloid proteins” value is “increased fluorescence”. In addition, the “displacement from binding to IFNγ-activated U937 cells by human IgG1” value in data set [2] is “displaced”. Moreover, in data set [3] (BDB 0.01-5 μM, biotinylated IgG1 0.01-1 μM), the “IFNg-activated U937 cells bound” value is at most 80%. The EC50 in data set [3] (read-out: half-maximal binding to IFNγ-activated U937 cells) was about 200 nM. In addition, the “binding to U937 cells treated with IFNγ versus non-activated (percentage of live cells positive for AF488 signal)” value in data set [4] is “enhanced binding”. Besides, the “cell binding with or without amyloid” value in data set [5] is “show cell binding irrespective of whether amyloid is present”. In addition, the “IFNγ-activated U937 cells binding amyloid (live cells positive for both AF488-streptavidin and AF647 h-Lyz)” value in data set [5] (1 or 0.1 μM AF647-hLyz) is “Up to 14.4%”. Also, in data set [6], the “binding to murine primary macrophages treated with LPS versus non-activated (percentage of live cells positive for AF488 signal)” value is reported as “enhanced binding”. Also, the “pHrodo red signal in the absence of amyloid” value in data set [7] (1 μM BDB or 1 μM cp33, no amyloid) is on record as “did not generate a signal”. Further, in data set [7] (1 μM BDB with 0.1 μM labelled amyloid, compared to cp33-amyloid or amyloid alone, hourly for 48 h), the “phagocytosis of amyloid (pHrodo red signal, Total Red Object Area)” value is on record as “enhances the phagocytosis of amyloid”.
